Each structure is given as a SMILES string. Numbered stars: 1 amine (or outer) side, 2 acyl side, 3 side chain; on linkers, the order of the positions; unused ones are H or OH. Bridge positions count the residues as written; N and C are the ends. Square brackets hold non-standard residues; d marks the D form. Side chains are listed from the residue outwards. Peptide text beside a SMILES is read from it. * marks the point of attachment. C18 diacid = O=C(O)CCCCCCCCCCCCCCCCC(=O)*; γGlu = O=C(O)[C@H](CCC(=O)[*:2])N[*:1]; αMeF = C[C@](N)(Cc1ccccc1)C(=O)O Some results are limits rather than exact numbers.

For series [1], the target named is T1, human amylin receptor (calcitonin receptor co-expressed with receptor activity modifying protein, RAMP3) (hAMYR3) (Homo sapiens, UniProt O60896+P30988).
T1 construct: expressed in transfected cells
T1 sequence (P30988 25-474): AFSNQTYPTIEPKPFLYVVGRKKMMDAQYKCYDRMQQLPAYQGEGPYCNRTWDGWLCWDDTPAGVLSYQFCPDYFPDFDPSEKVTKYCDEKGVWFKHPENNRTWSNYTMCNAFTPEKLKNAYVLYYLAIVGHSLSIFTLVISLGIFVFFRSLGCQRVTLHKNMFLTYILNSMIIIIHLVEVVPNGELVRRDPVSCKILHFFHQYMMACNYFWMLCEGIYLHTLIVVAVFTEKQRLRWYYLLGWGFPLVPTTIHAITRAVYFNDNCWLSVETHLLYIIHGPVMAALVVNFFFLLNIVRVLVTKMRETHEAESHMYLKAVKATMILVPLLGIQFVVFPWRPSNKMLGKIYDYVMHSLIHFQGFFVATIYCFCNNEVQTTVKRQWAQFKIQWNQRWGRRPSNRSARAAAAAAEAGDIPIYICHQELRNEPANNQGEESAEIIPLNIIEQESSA
T1 sequence (O60896 24-148 partner): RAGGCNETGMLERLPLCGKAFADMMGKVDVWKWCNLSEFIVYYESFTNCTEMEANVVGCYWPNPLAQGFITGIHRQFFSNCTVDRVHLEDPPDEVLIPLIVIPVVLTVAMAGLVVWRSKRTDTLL
Description: cAMP production in 1321N1 cells with stable recombinant expression of human amylin receptor (hAMYR3). The class given is cell-based. Conditions: for Ratio (selectivity hAMYR vs hCTR, ratio of EC50 values at the two receptors): EC50 hCTR / EC50 hAMYR3; for EC50: cAMP, 1321N1 cells, assay buffer with 0.1% BSA, read-out: EC50 (pM) hAMYR3. The method in brief: (§1)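 Receptor-expressing cells (human receptors in 1321N1, rat receptors in HEK) incubated 30 min at room temperature with peptide in HBSS/HEPES pH 7.4, 0.1% BSA, 0.5 mM IBMX. cAMP read by HTRF; EC50 from 4-parameter fit as % of maximal amylin or calcitonin response.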
(In general: Cyclic AMP is a second messenger, typically raised through Gs and lowered through Gi signalling.)

Series [2] can be described thus: Thioflavin T fibrillation assay. It is filed as physicochemical. Conditions: ThT fibrillation assay; peptide 1 mg/mL in 25 mM sodium acetate buffer pH 4.0; 6 days at 37 °C with shaking; >144 h = no increase. The text has this:
Peptide aggregation that form fibrils is an indication of physical instability. Fibril formation in solution poses a significant risk for the stability of injectable peptide drug products. Thioflavin T (ThT) fibrillation assay is a useful tool to assess the aggregation kinetics of a peptide or protein under accelerated and stressed conditions that can be used to forecast the long-term viability of a compound in solution. ThT can selectively bind amyloid fibrils and the resultant complex emits strong fluorescence signal at 482 nm when excited at 450 nm (Anal Biochem. 1989 Mar;177(2):244-9). Monitoring of the change in fluorescence signal is an established method to study the fibril forming potential of peptides and proteins. ThT (purchased from Sigma Aldrich) stock solution is prepared by dissolving the ThT powder in Milli-Q water and filtered to obtain a 0.25 mM solution. The concentration of the solution is measured at 412 nm using an extinction coefficient of 36 mM^−1cm^−1. Test peptides were dissolved at 1 mg/mL in 25 mM sodium acetate buffer pH 4.0. 100 μL aliquot of peptide solution and 5 μL aliquot of ThT solution were placed in a clear bottom black fluorescence 96-well plate. 5 replicates of each test samples were placed in zo the same row of the plate. Buffer was placed in control wells for baseline correction. All empty wells were filled with water to prevent evaporation. The plate was sealed with aluminium seal and placed in fluorescence plate reader and incubated for 6 days at 37 ° C. with intermittent orbital shaking at 500 to 750 rpm. The fluorescence intensity was measured every 30 min using excitation at 444 nm and emission at 480 nm. The fibril forming potential of the test peptides was determined by measuring the average time taken to detect an increase in baseline corrected fluorescence intensity.

In series [3] the target is T2, human calcitonin receptor (hCTR) (Homo sapiens, UniProt P30988).
T2 construct: expressed in transfected cells
T2 sequence (P30988 25-474): T1 sequence (P30988 25-474)
In words: cAMP production in 1321N1 cells with stable recombinant expression of human calcitonin receptor (hCTR). The class given is cell-based. Conditions: cAMP, 1321N1 cells, assay buffer with 0.1% BSA; read-out: EC50 (pM) hCTR. The procedure, abridged:
as §1

Usually EC50 stands for the concentration at which the effect is half-maximal. As for `CC[C@H](C)[C@H](NC(=O)[C@@H]1CCCN1C(=O)CNC(=O)[C@](C)(Cc1ccccc1)NC(=O)[C@H](CC(N)=O)NC(=O)[C@H](CC(N)=O)NC(=O)[C@H](CO)NC(=O)[C@H](CO)NC(=O)[C@H](Cc1c[nH]cn1)NC(=O)[C@H](CCCNC(=N)N)NC(=O)[C@H](CC(C)C)NC(=O)[C@H](Cc1ccccc1)NC(=O)[C@H](CCC(=O)O)NC(=O)[C@H](C)NC(=O)[C@H](CC(C)C)NC(=O)[C@H](CCCNC(=N)N)NC(=O)[C@H](CCC(N)=O)NC(=O)[C@@H](NC(=O)[C@H](C)NC(=O)[C@@H]1CSSC[C@H](NC(=O)[C@@H](N)CCCCNC(=O)CC[C@H](NC(=O)CC[C@H](NC(=O)CCCCCCCCCCCCCCCCC(=O)O)C(=O)O)C(=O)O)C(=O)N[C@@H](CC(N)=O)C(=O)N[C@@H]([C@@H](C)O)C(=O)N[C@@H](C)C(=O)N[C@@H]([C@@H](C)O)C(=O)N1)[C@@H](C)O)C(=O)N[C@@H](CC(C)C)C(=O)N1CCC[C@H]1C(=O)N1CCC[C@H]1C(=O)N[C@H](C(=O)N[C@@H](CC(N)=O)C(=O)N[C@H](C(=O)NCC(=O)N[C@@H](CO)C(=O)N[C@@H](CC(N)=O)C(=O)N[C@H](C(=O)N[C@@H](Cc1ccc(O)cc1)C(N)=O)[C@@H](C)O)C(C)C)[C@@H](C)O` [Peptide 11, K(γE-γE-C18diacid)[CNTATC]ATQRLAEFLRHSSNN(αMePhe)GPILPPTNVGSNTY-amide] (H-K([γGlu-γGlu-C18 diacid])CNTATCATQRLAEFLRHSSNN[αMeF]GPILPPTNVGSNTY-NH2; disulfide 2-7), in series [1], the “Ratio (selectivity hAMYR vs hCTR, ratio of EC50 values at the two receptors)” value is on record as 21 and the EC50 is 177 pM. Further, the “Time taken to detect increase in fluorescence intensity” value in series [2] is over 144 h. Moreover, in series [3], the EC50 was determined as 3640 pM.
Take `CC[C@H](C)[C@H](NC(=O)[C@@H]1CCCN1C(=O)CNC(=O)[C@](C)(Cc1ccccc1)NC(=O)[C@H](CC(N)=O)NC(=O)[C@H](CC(N)=O)NC(=O)[C@H](CO)NC(=O)[C@H](CO)NC(=O)[C@H](Cc1c[nH]cn1)NC(=O)[C@@H](NC(=O)[C@H](CC(C)C)NC(=O)[C@H](Cc1ccccc1)NC(=O)[C@H](CC(N)=O)NC(=O)[C@H](C)NC(=O)[C@H](CC(C)C)NC(=O)[C@H](CCCNC(=N)N)NC(=O)[C@H](CCC(N)=O)NC(=O)[C@@H](NC(=O)[C@H](C)NC(=O)[C@@H]1CSSC[C@H](NC(=O)[C@@H](N)CCCCNC(=O)CC[C@H](NC(=O)CC[C@H](NC(=O)CCCCCCCCCCCCCCCCC(=O)O)C(=O)O)C(=O)O)C(=O)N[C@@H](CC(N)=O)C(=O)N[C@@H]([C@@H](C)O)C(=O)N[C@@H](C)C(=O)N[C@@H]([C@@H](C)O)C(=O)N1)[C@@H](C)O)C(C)C)C(=O)N[C@@H](CC(C)C)C(=O)N1CCC[C@H]1C(=O)N1CCC[C@H]1C(=O)N[C@H](C(=O)N[C@@H](CC(N)=O)C(=O)N[C@H](C(=O)NCC(=O)N[C@@H](CO)C(=O)N[C@@H](CC(N)=O)C(=O)N[C@H](C(=O)N[C@@H](Cc1ccc(O)cc1)C(N)=O)[C@@H](C)O)C(C)C)[C@@H](C)O` [Peptide 13, K(γE-γE-C18diacid)[CNTATC]ATQRLANFLVHSSNN(αMePhe)GPILPPTNVGSNTY-amide] (H-K([γGlu-γGlu-C18 diacid])CNTATCATQRLANFLVHSSNN[αMeF]GPILPPTNVGSNTY-NH2; disulfide 2-7; N-terminus assumed): in series [1], the “Ratio (selectivity hAMYR vs hCTR, ratio of EC50 values at the two receptors)” value was 10 and the EC50 stood at 196 pM. Further, the “Time taken to detect increase in fluorescence intensity” value in series [2] was found to be 25 h. The EC50 in series [3] is 2040 pM.

The values are drawn from patent US20240067693A1, “POLYPEPTIDES AND USES THEREOF” (MEDIMMUNE LIMITED, priority 2020, published 2024).
